Assays:
[1] = TEAC, ABTS decolorization assay; settings: relative to Trolox
Method in brief: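 Compound in ethanol added to persulfate-generated ABTS radical cation (OD ~0.7 at 734 nm); absorbance decrease followed at 734 nm for 4 min. TEAC is the slope of percent absorbance inhibition versus concentration divided by the corresponding Trolox slope.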

[2] = test system: PC12 cells; assay: PC12 cell differentiation (neurite outgrowth); format: cell-based; settings: N2 medium, derivative 1-10 μM, 24 hr, visual inspection
Method in brief: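 PC12 cells in N2 medium were exposed to derivatives (1-10 μM) for 24 hr, with Fisetin (10 μM) as positive control. Cells counted as positive if bearing ≥1 neurite longer than one cell body diameter; 100 cells scored in each of three fields per treatment.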

[3] = test system: HT22 cells; assay: Maintenance of total GSH in the presence of glutamate; format: cell-based, mouse; settings: derivative 1-10 μM, 5 mM glutamate, 24 hr
Method in brief: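 HT22 cells treated 24 hr with each derivative at 1-10 μM plus 5 mM glutamate, then extracts analysed for total GSH by chemical assay. Fisetin (10 μM) served as positive control.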

[4] = test system: primary mouse cortical neurons; assay: Primary cortical cell glutamate excitotoxicity assay; format: cell-based; settings: for % protection against glutamate excitotoxicity at 0.1 µM: Mus musculus, Cortical neurone; for % protection against glutamate excitotoxicity at 0.1 µM / Primary Cortical Cell assay-Glutamate (% protection @ 100 nM): 10 μM glutamate, compound 100 nM
Protocol: FIG. 5 illustrates pharmacological effects of Baicalein on cultured cells. (A) Trophic factor withdrawal. Primary cortical neurons are prepared from 18-day-old rat embryos, and cultured at low cell density 1×10^6/35 mm dish, in serum containing medium with Baicalein (10-10,000 nM), and viability assayed 2 days later using a live-dead assay. (B) Excitotoxicity assay was done with E14 mouse primary cortical neuron cultures. After 11 days of culture, cells were exposed to 10 μM glutamate for 10 min, followed by the addition of varying concentrations of Baicalein (0.2-5 μM). Cell viability was determined 24 hr later with a standard MTT assay. (C) PC12 cells were glucose-deprived then were incubates in the absence or presence of Baicalein. Cell viability was determined 24 hr later using the MTT assay. (D) RCG-5 nerve cells were treated with 30 μM iodoacetic acid for 2 hr in the presence or absence of 5-25 μM Baicalein. In some experiments, Baicalein was added 2 hr after the ischemic event. Cell survival (%) was measured after 24 hr by the MTT assay. Baicalein added before (□) or 2 hr after ([…]) ischemia.
Primary cultures of cortical neurons that die due to excitotoxicity were prepared as described previously. Briefly, BALB/c mouse embryo cortices were minced and treated with 0.1% trypsin for 20 min. After centrifugation, the cells are resuspended in 827 Neurobasal medium (Invitrogen) plus 10% fetal calf serum and are dissociated by repeated pipetting through a 1 mL blue Eppendorf pipette tip. Then the cells are plated at 1×10^5 cells per well in 96-well poly-L-lysine and laminin-coated microtiter plates (Becton Dickinson, Bedford, Mass., USA) in 827 Neurobasal plus 10% fetal calf serum and 20% glial growth-conditioned medium. Two days later the medium is aspirated and replaced by serum-free 827 Neurobasal medium plus 10 μg/mL cytosine arabinoside. The cultures are used without media change 11 days after plating and are essentially free of astrocytes. They are exposed to 10 μM glutamate followed by varying concentrations of the compounds. Cell viability is determined 24 h later using the fluorescent live/dead assay. Glial conditioned medium is prepared from confluent rat astrocyte cultures. The cells are washed twice with serum-free medium and incubated for 2 days in serum-free Neurobasal medium to produce the growth conditioned medium.
(1) ≧80% cell survival in mouse HT22 hippocampal cells in the presence of 20 μM iodoacetic acid (IAA) (in vitro ischemia model). See, Maher, et al., Brain Res. 2007, 1173:117-25. (2) ≧35% cell survival in primary mouse cortical neurons in the presence of 10 μM glutamate (in vitro excitotoxicity assay). See, Ishige, et al., Free Radic Biol Med, 2001, 30(4): p. 433-46.

Row | Structure (SMILES) | TEAC [1] | PC12 diff'n (ability to induce PC12 cell differentiation) [2] | GSH (ability to maintain GSH) [3] | % protection against glutamate excitotoxicity at 0.1 µM [4] [%] | Primary Cortical Cell assay-Glutamate (% protection @ 100 nM) [4] [%] | cells rescued in excitotoxicity assay ([4]; E14 mouse cortical neurons, 10 μM glutamate 10 min, 0.2-5 μM, MTT 24 hr)
1 | Cc1cc2oc(-c3ccc(N(C)C)cc3)c(O)c(=O)c2cc1C [CMS-117, 2-(4-(dimethylamino)phenyl)-3-hydroxy-6,7-dimethyl-4H-chromen-4-one] | 3 | no | yes |  |  | 
2 | O=c1c(O)c(-c2ccc(N3CCCC3)c(O)c2)oc2c1ccc1ccccc12 [CMS-140, 3-hydroxy-2-(3-hydroxy-4-(pyrrolidin-1-yl)phenyl)-4H-benzo[h]chromen-4-one] | 2.1 | Yes | Yes |  |  | 
3 | Cc1cc2oc(-c3ccc(N4CCCC4)cc3)c(O)c(=O)c2cc1C [CMS-122, 3-hydroxy-6,7-dimethyl-2-(4-(pyrrolidin-1-yl)phenyl)-4H-chromen-4-one] | 2.4 | yes | yes |  |  | 
4 | O=C(/C=C/c1ccc(O)c(O)c1)c1ccc2ccccc2c1O [CMS-034, (E)-3-(3,4-dihydroxyphenyl)-1-(1-hydroxynaphthalen-2-yl)prop-2-en-1-one] | 2.8 | yes | yes |  |  | 
5 | COc1cc(-c2oc3cc(C)c(C)cc3c(=O)c2O)ccc1OCc1ccccc1 [CMS-059, 2-(4-(benzyloxy)-3-methoxyphenyl)-3-hydroxy-6,7-dimethyl-4H-chromen-4-one] | 0.27 | no | no | 78 |  | 
6 | COc1cc(-c2oc3cc(C)c(C)cc3c(=O)c2O)ccc1O [CMS-069, 3-hydroxy-2-(4-hydroxy-3-methoxyphenyl)-6,7-dimethyl-4H-chromen-4-one] | 1.89 | no | no |  | 86 | 
7 | O=c1c(O)c(-c2ccc(O)c(O)c2)oc2c1ccc1ccccc12 [CMS-040, 2-(3,4-dihydroxyphenyl)-3-hydroxy-4H-benzo[h]chromen-4-one] | 2.4 | yes | no | 86 |  | 
8 | CC(C)Oc1cc(-c2ccc(O)c(O)c2)nc2ccccc12 [CMS-024, 4-isopropoxy-2-(3,4-dihydroxyphenyl) quinoline] | 0.18 | yes | yes |  | 58 | 
9 | Cc1cc(O)c(C(=O)/C=C/c2ccc(O)c(O)c2)cc1C [CMS-011, (E)-3-(3,4-dihydroxyphenyl)-1-(2-hydroxy-4,5-dimethylphenyl)prop-2-en-1-one] | 2.7 | yes | yes |  |  | 
10 | COc1cc(-c2ccc(O)c(O)c2)nc2ccccc12 [CMS-007, 4-methoxy-2-(3,4-dihydroxyphenyl) quinoline] | 0.36 | no | yes |  |  | 
11 | CN(C)c1ccc(-c2oc3c(ccc4ccccc43)c(=O)c2O)cc1 [CMS-118, 2-(4-(dimethylamino)phenyl)-3-hydroxy-4H-benzo[h]chromen-4-one] | 0.93 | no | yes |  |  | 
12 | COc1ccc(/C=C/C(=O)c2cc(C)c(C)cc2O)cc1OCc1ccccc1 [CMS-086, (E)-3-(3-(benzyloxy)-4-methoxyphenyl)-1-(2-hydroxy-4,5-dimethylphenyl)prop-2-en-1-one] | 0.12 | yes | yes |  |  | 
13 | O=C(/C=C/c1ccc(O)c(O)c1)O[C@@H]1C[C@](O)(C(=O)O)C[C@@H](O)[C@H]1O [Chlorogenic Acid, 1,3,4,5-tetrahydroxy-cyclohexanecarboxylic acid 3-(3,4-dihydroxycinnamate)] |  |  |  | 0 |  | 
14 | Oc1ccc(-c2cc(OC3CCCC3)c3ccccc3n2)cc1O [CMS-121, 4-cyclopentyloxy-2-(3,4-dihydroxyphenyl) quinoline] | 0.40 | yes | yes |  |  | 
15 | O=c1c(O)c(-c2ccc(O)c(O)c2)oc2cc(O)ccc12 [Fisetin, 3,7,3′,4′-Tetrahydroxyflavone, reference compound] | 3 | yes | yes |  | 0 | 
16 | O=c1cc(-c2ccccc2)oc2cc(O)c(O)c(O)c12 [Baicalein, 5,6,7-trihydroxyflavone, reference compound] |  |  |  | 0 |  | about 35%
17 | CCOc1cc(-c2ccc(O)c(O)c2)nc2ccccc12 [CMS-023, 4-ethoxy-2-(3,4-dihydroxyphenyl) quinoline] | 0.90 | yes | yes |  | 100 | 
18 | O=c1c(O)c(-c2ccc(O)c(O)c2)oc2ccccc12 [CMS-04P, reference compound] | 2 | yes | yes |  |  | 

From patent publication US20140186329A1, “POLYPHENOL ANALOGS TO TREAT ISCHEMIA” (priority 2011, published 2014)
